{"source": "patent US12544368B2", "about": "“Compositions and methods for reducing cancer stem cells” (The Regents of the University of Colorado, A Body Corporate, priority 2018, dated 2026)", "key": {"relapsed LSCs": {"tested_on": "relapsed LSCs", "test": "APO866 treatment of LSCs from relapsed AML patients (NAD+, viability, colony formation, OXPHOS, glycolysis, metabolic flux)", "format": "cell-based, human", "from_the_text": "(§1) To determine if nicotinamide metabolism is important in LSC survival, particularly in the context of relapsed disease, LSCs were first isolated from de novo AML and relapsed AML patients and analyzed. […] Nicotinamide is a precursor of NAD+, an essential coenzyme in energy metabolism. To test if relapsed LSCs are dependent on nicotinamide metabolism to maintain energy metabolism, nicotinamide metabolism was disrupted in LSCs using the small molecule APO866, which is an inhibitor of Nampt, the rate-limiting enzyme for conversion of nicotinamide to NAD+.\n(§2) To better understand the mechanism by which inhibiting nicotinamide metabolism targets relapsed LSCs, changes in OXPHOS and glycolysis activity in de novo and relapsed LSCs after APO866 treatment was measured. […] No change in glycolysis was observed.\nTo determine how APO866 reduced OXPHOS, stable isotope metabolic flux of amino acids, the fatty acid palmitate, and glucose into the TCA cycle after APO866 treatment was measured."}, "malate dehydrogenase": {"tested_on": "malate dehydrogenase", "test": "TCA cycle enzyme activity in relapsed LSCs after APO866", "format": "cell-based, human", "conditions": "4 hours"}, "[1]": {"tested_on": "α-ketoglutarate dehydrogenase", "test": "TCA cycle enzyme activity in relapsed LSCs after APO866", "format": "cell-based, human", "conditions": "4 hours"}, "[2]": {"tested_on": "relapsed AML patient sample", "test": "Engraftment of APO866-treated relapsed AML patient sample into immune deficient mice", "format": "in vivo", "conditions": "sample treated for 24 hours before engraftment"}, "isocitrate dehydrogenase": {"tested_on": "isocitrate dehydrogenase", "test": "TCA cycle enzyme activity in relapsed LSCs after APO866", "format": "cell-based, human", "conditions": "4 hours"}, "de novo LSCs": {"tested_on": "de novo LSCs", "test": "APO866 treatment of LSCs from de novo AML patients (NAD+, viability, colony formation, OXPHOS)", "format": "cell-based, human", "from_the_text": "as §1, §2"}, "CD34+/CD38−/CD123+ cells": {"tested_on": "CD34+/CD38−/CD123+ cells", "test": "Viability of cell populations from MDS patient samples in vitro", "format": "cell-based, human", "conditions": "for viability / killing of CD123+ MDS stem cells: MDS patient samples, anisomycin 200 nM and 400 nM, ABT-199 200 nm, omacetaxine 200 nM, azacitidine 2.5 μM", "method": "Strategies involving inhibiting protein translation were investigated as a means of improving therapeutic outcomes for MDS through the targeting of pathways deregulated in the CD123+ MDS stem cell compartment. A reagent grade compound, anisomycin was tested. Anisomycin is known to inhibit protein translation and induce “ribotoxic stress”.\n(§3) Next, the drug omacetaxine mepesuccinate was tested. Omacetaxine is a protein synthesis inhibitor which is FDA approved.\nThe drug azacitidine was also tested.\nThe second major phenotype found to be deregulated in CD123+ cells was oxidative phosphorylation and redox status. Thus, the ability of the BCL-2 inhibitor ABT-199 (venetoclax) to preferentially eliminate MDS stem cells was tested."}, "ROS-low LSCs": {"tested_on": "ROS-low LSCs", "test": "In vitro amino acid uptake, amino acid levels and transporter expression in LSCs", "format": "cell-based, human", "conditions": "LSCs isolated from three patients", "method": "Amino acid levels and cell viability were then measured."}, "ETC complex II": {"tested_on": "ETC complex II", "test": "Glutathione, sdhA glutathionylation and ETC complex II activity in primary AML specimens in vitro", "format": "cell-based, human"}, "LSCs": {"tested_on": "LSCs", "test": "In vitro viability of LSCs from AML patient samples", "format": "cell-based, human"}, "AML blasts": {"tested_on": "AML blasts", "test": "OXPHOS (seahorse assay) in leukemia cells from patients pre and 24 hours post treatment", "format": "in vivo, human", "conditions": "patients receiving single agent"}, "MDS stem cells": {"tested_on": "MDS stem cells", "test": "Patient bone marrow derived xenograft model of MDS in NSG-S mice", "format": "in vivo", "conditions": "for engraftment models with single agent toxicity for human CD45+ cells: three high-risk MDS patient xenografts", "from_the_text": "To further evaluate the clinical potential of various agents for targeting of MDS stem cells, an in vivo patient bone marrow derived xenograft model of MDS was developed. The system employed the use of primary MDS specimens transplanted into immune deficient NSG-S mice.\nXenografts established using specimens from three independent high-risk MDS patients were used. Drug treatments included single agent therapy with omacetaxine, venetoclax (ABT), azacitidine, the combination of omacetaxine and venetoclax, or the combination of omacetaxine and azacitidine. To evaluate overall drug activity, the reduction of total human hematopoietic cells was measured using the CD45 (pan-hematopoietic) antigen as a marker. […] Next, drug activity in the stem cell compartment was monitored by gating on the CD34+/CD38−/CD123+ subpopulation."}, "protein synthesis": {"tested_on": "protein synthesis", "test": "Protein translation levels (OP-puro) in MDS cells", "format": "cell-based, human", "conditions": "MDS patient samples, 4 hours", "method": "The upregulation of the translation gene sets indicates a potential for increased protein synthesis in the CD123+ stem cell population. To further investigate changes in translational activity, protein synthesis levels were measured by culturing cells with a fluorescent substrate known as OP-puro, which is incorporated into newly synthesized polypeptide chains and can be quantified as a measure of overall protein synthesis activity.\nas §3"}, "primary MDS cells": {"tested_on": "primary MDS cells", "test": "Mitochondrial respiration of primary MDS cells", "format": "cell-based, human", "from_the_text": "An additional component of the efficacy observed with combined ABT-199 and omacetaxine may involve suppression of MCL-1 as increased MCL-1 expression in CD34+/CD123+ MDS cells was observed. Resistance to BCL-2 inhibition can be overcome via treatment with protein synthesis inhibitors, which down-regulate expression of MCL-1."}, "MOLM-13 cells": {"tested_on": "MOLM-13 cells", "test": "Valinomycin-induced mitophagy in MOLM-13 cells", "format": "cell-based, human", "conditions": "control MOLM-13 cells", "method": "To test whether FIS1 is responsible for the distinct mitochondrial morphology, shRNA-mediated knockdown studies in both the AML cell line MOLM-13 and primary AML cells were performed to examine the effect of FIS1 loss on mitochondrial dynamics. […] To determine if the increased mitochondrial content in FIS1-depleted AML cells is caused by a deficient state of mitophagy, mitophagy was induced in the FIS1-depleted and control cells using the mitochondrial stress inducer valinomycin. […] Expression of PINK1, a kinase stabilized upon mitophagy activation and involved in the clearance of damaged mitochondria was also measured."}, "CD34+ cells": {"tested_on": "CD34+ cells", "test": "Valinomycin treatment of normal CD34+ cells", "format": "cell-based, human", "conditions": "control and shFIS1 CD34+ cells"}, "[3]": {"tested_on": "LSCs and non-LSCs from human AML specimens", "test": "Valinomycin treatment of freshly sorted LSCs and non-LSCs", "format": "cell-based", "method": "To determine whether primary AML cells with a higher expression of FIS1 have increased mitophagy activity, valinomycin treatment experiments were performed on freshly sorted LSCs and non-LSCs from human AML specimens."}}, "data": [{"compound": "O=C(/C=C/c1cccnc1)NCCCCC1CCN(C(=O)c2ccccc2)CC1", "note": "[APO866]", "values": [{"measurement": "NAD+", "setting": "relapsed LSCs; LSCs from relapsed AML patient samples", "result": "significant decrease in NAD+"}, {"measurement": "viability and colony-forming ability", "setting": "relapsed LSCs; LSCs from relapsed AML patients, 24 hours", "result": "decreased viability and colony-forming ability"}, {"measurement": "glycolysis", "setting": "relapsed LSCs; de novo and relapsed LSCs", "result": "No change"}, {"measurement": "OXPHOS and OXPHOS capacity", "setting": "relapsed LSCs; relapsed LSCs, 4 hours", "result": "significant decrease"}, {"measurement": "citrate, malate, and α-ketoglutarate from amino acids and palmitate", "setting": "relapsed LSCs; stable isotope metabolic flux", "result": "increased accumulation"}, {"measurement": "glycolysis or glucose contribution to the TCA cycle", "setting": "relapsed LSCs; stable isotope metabolic flux", "result": "No changes"}, {"measurement": "malate dehydrogenase activity", "setting": "malate dehydrogenase", "result": "significantly decreased"}, {"measurement": "normal hematopoietic stem cell frequency or colony forming ability", "setting": "normal HSPCs", "result": "did not affect"}, {"measurement": "α-ketoglutarate dehydrogenase activity", "setting": "[1]", "result": "significantly decreased"}, {"measurement": "leukemia engraftment", "setting": "[2]", "result": "significant reduction in leukemia engraftment"}, {"measurement": "isocitrate dehydrogenase activity", "setting": "isocitrate dehydrogenase", "result": "significantly decreased"}, {"measurement": "NAD+", "setting": "de novo LSCs; LSCs from de novo AML patient samples", "result": "significant decrease in NAD+"}, {"measurement": "viability and colony-forming ability", "setting": "de novo LSCs; LSCs from de novo, untreated patients, 24 hours", "result": "not LSCs from de novo, untreated patients"}, {"measurement": "OXPHOS and OXPHOS capacity", "setting": "de novo LSCs; de novo LSCs, 4 hours", "result": "not de novo LSCs"}]}, {"compound": "COc1ccc(C[C@H]2NC[C@H](O)[C@H]2OC(C)=O)cc1", "note": "[Anisomycin, anisomycin]", "values": [{"measurement": "viability / killing of CD123+ MDS stem cells", "setting": "CD34+/CD38−/CD123+ cells", "result": "selective killing"}]}, {"compound": "Nc1ncn([C@@H]2O[C@H](CO)[C@@H](O)[C@H]2O)c(=O)n1", "note": "[azacitidine]", "values": [{"measurement": "amino acid transporter expression", "setting": "ROS-low LSCs", "result": "Neither venetoclax nor azacitidine could reduce expression"}, {"measurement": "ROS levels", "setting": "ETC complex II", "result": "can increase ROS levels"}, {"measurement": "ROS-low LSC and ROS-high AML blast viability", "setting": "LSCs; in vitro, 500 nM venetoclax, 2.5 μM azacitidine, 24 hours", "result": "potentiates the effect of venetoclax"}, {"measurement": "patients without alterations in OXPHOS levels", "setting": "AML blasts", "result": "two of three"}, {"measurement": "engraftment models with single agent toxicity for human CD45+ cells", "setting": "MDS stem cells", "result": "one"}, {"measurement": "viability / killing of CD123+ MDS stem cells", "setting": "CD34+/CD38−/CD123+ cells", "result": "no significant decreases in viability"}, {"measurement": "toxicity between CD123+ vs. CD123−", "setting": "CD34+/CD38−/CD123+ cells; seven high-risk MDS patient specimens", "result": "no differential toxicity"}]}, {"compound": "CCOC(=O)[C@@]1(CCCCCCOc2ccc(Cl)cc2)CO1", "note": "[etomoxir]", "values": [{"measurement": "sensitization of LSCs", "setting": "LSCs; venetoclax/azacitidine resistant LSCs", "result": "potently sensitizes LSCs to venetoclax+azacitidine"}]}, {"compound": "COC(=O)C[C@](O)(CCCC(C)(C)O)C(=O)O[C@@H]1C(OC)=C[C@]23CCCN2CCc2cc4c(cc2[C@H]13)OCO4", "note": "[omacetaxine, omacetaxine mepesuccinate]", "values": [{"measurement": "protein translation levels", "setting": "protein synthesis", "result": "effective at decreasing protein translation levels"}, {"measurement": "engraftment models with single agent toxicity in the more primitive cells", "setting": "MDS stem cells; CD34+/CD38−/CD123+ subpopulation", "result": "2 of 3"}, {"measurement": "reduction in CD34+/CD38−/CD123+ cells", "setting": "MDS stem cells; each xenograft", "result": "greater than or equal to 50%"}, {"measurement": "reduction in CD34+/CD38−/CD123+ cells", "setting": "MDS stem cells; one xenograft", "result": "> 80", "unit": "%"}, {"measurement": "engraftment models with single agent toxicity for human CD45+ cells", "setting": "MDS stem cells", "result": "two"}, {"measurement": "mitochondrial respiration", "setting": "primary MDS cells", "result": "impairs mitochondrial respiration"}, {"measurement": "viability / killing of CD123+ MDS stem cells", "setting": "CD34+/CD38−/CD123+ cells", "result": "specifically targeted CD123+ cells"}]}, {"compound": "CC(C)[C@@H]1NC(=O)[C@H](C)OC(=O)[C@@H](C(C)C)NC(=O)[C@@H](C(C)C)OC(=O)[C@H](C(C)C)NC(=O)[C@H](C)OC(=O)[C@@H](C(C)C)NC(=O)[C@@H](C(C)C)OC(=O)[C@H](C(C)C)NC(=O)[C@H](C)OC(=O)[C@@H](C(C)C)NC(=O)[C@@H](C(C)C)OC1=O", "note": "[valinomycin]", "values": [{"measurement": "mitochondrial content", "setting": "MOLM-13 cells", "result": "loss of mitochondria"}, {"measurement": "PINK1 expression", "setting": "MOLM-13 cells; 5 mM valinomycin for 3 hr", "result": "increased PINK1 expression"}, {"measurement": "mitochondrial mass", "setting": "CD34+ cells", "result": "induced mitochondrial accumulation"}, {"measurement": "mitochondrial mass in LSCs", "setting": "[3]; freshly sorted LSCs", "result": "efficient clearance of mitochondria"}, {"measurement": "mitochondrial mass in non-LSCs", "setting": "[3]; freshly sorted non-LSCs", "result": "further accumulation of mitochondrial mass"}]}, {"compound": "sorbitan sesquioleate [SSO]", "values": [{"measurement": "normal HSPCs viability or colony forming ability", "setting": "normal HSPCs", "result": "did not affect"}]}]}
